According to PubChem BioAssay AID256 (DTP/NCI, 2004):
Where “and” joins values, the source holds several entries; their conditions need not be identical. Identical values can stand only once. Toxic doses and inconclusive results are not listed.

Test system: CD2F1 mice, L1210 leukemia ip, survival T/C
Assay: NCI In Vivo Anticancer Drug Screen. Data for tumor model L1210 Leukemia (intraperitoneal) in CD2F1 (CDF1) mice
Settings: higher = longer survival
Method in brief: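 Tumor-bearing mice (transplanted tumor) were split into treated and vehicle control groups, and the measured endpoint of each treated group was divided by that of its vehicle controls.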

[1] = endpoint: mean survival time, dose: 100.0 mg/kg/injection, schedule: Q04DX002 (ip), vehicle: saline with Tween-80
[2] = endpoint: mean survival time, dose: 200.0 mg/kg/injection, schedule: Q04DX002 (ip), vehicle: saline with Tween-80
[3] = endpoint: mean survival time, dose: 400.0 mg/kg/injection, schedule: Q04DX002 (ip), vehicle: saline with Tween-80
[4] = endpoint: mean survival time, dose: 100.0 mg/kg/injection, schedule: Q01DX001 (ip), vehicle: saline with Tween-80
[5] = endpoint: mean survival time, dose: 200.0 mg/kg/injection, schedule: Q01DX001 (ip), vehicle: saline with Tween-80

CC1(C)N=C(N)N=C(N)N1c1ccc(CCCCc2cccc(S(=O)(=O)F)c2)c(Cl)c1
T/C (endpoint: mean survival time, dose: 2.5 mg/kg/injection, schedule: Q01DX009 (ip), vehicle: saline with Tween-80): 98 % of control | T/C (endpoint: mean survival time, dose: 5.0 mg/kg/injection, schedule: Q01DX009 (ip), vehicle: saline with Tween-80): 104 % of control | T/C (endpoint: mean survival time, dose: 6.25 mg/kg/injection, schedule: Q04DX003 (ip), vehicle: saline sonified): 89 % of control | T/C (endpoint: mean survival time, dose: 10.0 mg/kg/injection, schedule: Q01DX009 (ip), vehicle: saline with Tween-80): 103 % of control | T/C (endpoint: mean survival time, dose: 12.5 mg/kg/injection, schedule: Q04DX003 (ip), vehicle: saline sonified): 93 % of control | T/C (endpoint: mean survival time, dose: 20.0 mg/kg/injection, schedule: Q01DX009 (ip), vehicle: saline with Tween-80): 112 % of control | T/C (endpoint: mean survival time, dose: 25.0 mg/kg/injection, schedule: Q04DX003 (ip), vehicle: saline sonified): 96 % of control

CCOC(=O)CCC(NC(=O)c1cc(Cl)c(N(CC)Cc2cnc3nc(N)nc(N)c3n2)c(Cl)c1)C(=O)OCC (centres undefined)
T/C (endpoint: mean survival time, dose: 25.0 mg/kg/injection, schedule: Q01DX009 (ip), vehicle: Klucel (hydroxypropylcellulose) (HPC)): 170 % of control

Nc1ccc(OCc2nc(N)nc(N)c2-c2cccc(Cl)c2)cc1
T/C (endpoint: mean survival time, dose: 100.0 mg/kg/injection, schedule: Q01DX001 (ip), vehicle: saline + alcohol): 103 % of control | T/C (endpoint: mean survival time, dose: 200.0 mg/kg/injection, schedule: Q01DX001 (ip), vehicle: saline + alcohol): 101 % of control | T/C (endpoint: mean survival time, dose: 400.0 mg/kg/injection, schedule: Q01DX001 (ip), vehicle: saline + alcohol): 106 % of control

O=C(O)CCC1(CCC(=O)O)OCCO1.[Ag]
T/C (endpoint: mean survival time, dose: 9.5 mg/kg/injection, schedule: Q01DX009 (ip), vehicle: saline sonified): 92 % of control | T/C (endpoint: mean survival time, dose: 18.75 mg/kg/injection, schedule: Q01DX009 (ip), vehicle: saline with Tween-80): 92 % of control | T/C (endpoint: mean survival time, dose: 19.0 mg/kg/injection, schedule: Q01DX009 (ip), vehicle: saline sonified): 95 % of control | T/C (endpoint: mean survival time, dose: 37.5 mg/kg/injection, schedule: Q01DX009 (ip), vehicle: saline with Tween-80): 92 % of control | T/C (endpoint: mean survival time, dose: 38.0 mg/kg/injection, schedule: Q01DX009 (ip), vehicle: saline sonified): 95 % of control

CC(C)N1CCSC1=S
T/C (endpoint: mean survival time, dose: 25.0 mg/kg/injection, schedule: Q01DX009 (ip), vehicle: saline sonified): 101 % of control | T/C (endpoint: mean survival time, dose: 50.0 mg/kg/injection, schedule: Q01DX009 (ip), vehicle: saline sonified): 98 % of control | T/C (endpoint: mean survival time, dose: 100.0 mg/kg/injection, schedule: Q01DX009 (ip), vehicle: saline sonified): 106 % of control | T/C (endpoint: mean survival time, dose: 100.0 mg/kg/injection, schedule: Q04DX003 (ip), vehicle: saline with Tween-80): 100 % of control | T/C (endpoint: mean survival time, dose: 200.0 mg/kg/injection, schedule: Q01DX009 (ip), vehicle: saline sonified): 88 % of control | T/C (endpoint: mean survival time, dose: 200.0 mg/kg/injection, schedule: Q04DX003 (ip), vehicle: saline with Tween-80): 99 % of control | T/C (endpoint: mean survival time, dose: 400.0 mg/kg/injection, schedule: Q04DX003 (ip), vehicle: saline with Tween-80): 97 % of control

CC/C=C/C(C)OC(=N)C(Cl)(Cl)Cl (centres undefined)
T/C [1]: 103 % of control | T/C [2]: 100 % of control | T/C [3]: 97 % of control

CCOC(=O)C[Se]CC(=O)OCC
T/C [4]: 100 % of control | T/C [5]: 103 % of control

CC(C)(C)C1(C#N)C(=O)C2CCCCC21 (centres undefined)
T/C (endpoint: mean survival time, dose: 12.5 mg/kg/injection, schedule: Q04DX002 (ip), vehicle: saline with Tween-80): 105 % of control | T/C (endpoint: mean survival time, dose: 25.0 mg/kg/injection, schedule: Q04DX002 (ip), vehicle: saline with Tween-80): 97 % of control | T/C (endpoint: mean survival time, dose: 50.0 mg/kg/injection, schedule: Q04DX002 (ip), vehicle: saline with Tween-80): 94 % of control

C#CC1(OC(=O)Nc2ccc3c(c2)OCO3)CCCCC1
T/C [4]: 92 % of control | T/C [5]: 86 % of control | T/C (endpoint: mean survival time, dose: 400.0 mg/kg/injection, schedule: Q01DX001 (ip), vehicle: saline with Tween-80): 95 % of control

Cc1cc(C(=O)O)c(CC(=O)O)o1
T/C [1]: 104 % of control | T/C [2]: 104 % of control | T/C [3]: 86 % of control

COC1OC(COC(C)=O)C(OC(C)=O)C(OC(C)=O)[CH]1[Hg][O]C(C)=O (centres undefined)
T/C (endpoint: mean survival time, dose: 6.25 mg/kg/injection, schedule: Q01DX009 (ip), vehicle: saline): 106 % of control | T/C (endpoint: mean survival time, dose: 12.5 mg/kg/injection, schedule: Q01DX009 (ip), vehicle: saline): 108 % of control | T/C (endpoint: mean survival time, dose: 25.0 mg/kg/injection, schedule: Q01DX009 (ip), vehicle: saline): 97 % of control

CC[C@@]1(OC(=O)CN2CCNCC2)C(=O)OCc2c1cc1n(c2=O)Cc2cc3ccccc3nc2-1
T/C (endpoint: median survival time, dose: 6.25 mg/kg/injection, schedule: Q04DX002 (ip), vehicle: water): 106 % of control | T/C (endpoint: median survival time, dose: 12.5 mg/kg/injection, schedule: Q04DX002 (ip), vehicle: water): 116 % of control | T/C (endpoint: median survival time, dose: 50.0 mg/kg/injection, schedule: Q04DX002 (ip), vehicle: water): 153 % of control and 170 % of control | T/C (endpoint: median survival time, dose: 100.0 mg/kg/injection, schedule: Q04DX002 (ip), vehicle: water): 268 % of control
